The nature of data set [1]: Thrombin infusion as pro-thrombotic challenge. It counts as in vivo, rabbit. The conditions noted are these: thrombin 10-250 Units; when cardiovascular parameters indicated a thrombotic event. The method, then:
Another experiment was performed with infusion of thrombin (10-250 Units) as pro-thrombotic challenge. Also in this experiment, an increase in exhaled NO was obtained when measurement of cardiovascular parameters indicated an activation of a thrombotic event.

The next data set concerns NO-production. Briefly: L-NAME pre-treatment (inhibited NO-production) before and during muscle emboli challenge in anaesthetised rabbits (Group 2). Format: in vivo. The method, then:
The experiments were approved by the local animal ethics committee. Male white New Zealand rabbits (n=20, body weight 2.456±0.086 kg) were anaesthetised via an ear vein with sodium pentobarbital, 6 mg ml^−1 in normal saline, 40-60 mg kg^−1. The animals were placed in supine position and tracheotomised just below the cricoid cartilage to allow mechanical ventilation using a tracheal cannula with an outer diameter of 5 mm. The animals were ventilated by a Harvard Apparatus rodent ventilator (model 683, Harvard Apparatus, South Natick, Mass., USA). The ventilator was supplied with NO-free air using a charcoal filter (110×11 cm). Ventilation rate was 40 min^−1 at constant volume where the tidal volume was initially adjusted to keep the end-tidal CO2 at 4.5-5.3% as determined by a ventilatory monitor (Oscar-Oxy, Datex, Helsinki, Finland) sampling gas (150 ml min^−1, 15-20% of minute ventilation) from one of two side-arms connected to the tracheal cannula, and using a de-humidifying tube. The minute ventilation was 0.64-0.96 l min^−1. To the other side arm a pressure transducer (Statham, Hato Rey, Puerto Rico) was connected thus monitoring the insufflation pressure. The gas from the ventilator outlet was led through a switching valve to either of two beakers creating a positive end-expiratory pressure (PEEP) of 1-2 cmH2O or 4-5 cmH2O. During the experiment the gas flow was altered between the lower PEEP (9 min) and the higher PEEP (1 min) with an interval of totally 10 min. A continuous infusion containing glucose (24.3 g l^−1), dextran 70 (26.5 g l^−1), NaHCO3 (6,2 g l^−1), sodium pentobarbital (4.1 g l^−1) and pancuronium bromide ([…]) was administrated at a rate of 5 ml kg^−1 h^−1 via the same ear vein by means of a Terumo STC-521 syringe pump (Terumo Corp., Tokyo, Japan). A heparinised catheter was inserted in the left common carotid artery for blood pressure and heart rate recordings (pressure transducer, Staham, Hato Rey, Puerto Rico), and arterial blood sampling. Another catheter was inserted in the right jugular vein for drug and muscle emboli administration. Body temperature was maintained at 37-38.5° C. by means of a heating pad connected to a thermostat. The muscles from the anterior compartment of the right lower hind limb were resected and placed in normal saline. Hereafter the animals were allowed a 30-60 min intervention-free period to obtain stable circulatory conditions and stable concentrations of expired NO.
NO concentration, in mixed exhaled gas, was continuously measured by means of a chemiluminescence based system (NIOX®, AEROCRINE AB, Solna, Sweden) sampling at 100 ml min^−1 at the end of a mixing chamber connected to the ventilator exhaust. The full mixing of expired air thus measured on was intermittently checked by monitor CO2 concentration in the same chamber. In a few experiments, gas for NO measurement was sampled from the trachea at the same point as for tidal CO2 measurements, thus yielding breath by breath NO concentrations. Calibration was done using certified NO standard gas in nitrogen (AGA Specialgas, Lidingö, Sweden).
The resected muscle tissue was cleared from all visible connective tissue and then homogenized and dissolved in normal saline to a concentration of 0,1 g muscle ml^−1. 50 IE heparin was added to the mixture. The homogenate was filtered through a filter (500 μm) to prevent clotting in the three way stop-cock.
The animals were divided into two groups; 1) one group receiving a high dose (58-120 mg kg^−1) muscle homogenate and 2) a second group receiving the nitric oxide inhibitor L-NAME (30 mg kg^−1) 40 min before challenge with lower doses (30 to 7.5 mg kg^−1) muscle homogenate, since initial pilot experiments indicated a marked enhancement of emboli effects after L-NAME pre-treatment. […]

[2] abbreviates: Group 2, during L-NAME pre-treatment, time -5 min, before challenge.

As to thrombin, in data set [1], the “exhaled NO change” value is reported as “increase”.

Turning to `COC(=O)[C@@H](N)CCCNC(=N)N[N+](=O)[O-]` [L-NAME, N^G-nitro-L-arginine methyl ester], in the data set with NO-production (setting [2]), the PaCO2 came to 4.3 ± 0.2 kPa, the PaO2 turned out to be 8.6 ± 0.6 kPa and the “pH (arterial)” value is recorded as 7.50 ± 0.02. The “ETCO2 after L-NAME infusion” value in the data set on NO-production (L-NAME 30 mg kg-1, before muscle emboli challenge (time=-5), before L-NAME 4.9±0.1) is listed as 4.8±0.2 kPa. The “FENO after L-NAME infusion” value with NO-production (L-NAME 30 mg kg-1, before muscle emboli challenge (time=-5), before L-NAME 20.9±1.0 ppb, n=4) is 0 ppb. For the same compound, in the data set with NO-production (L-NAME 30 mg kg-1, before muscle emboli challenge (time=-5), before L-NAME 105±6), the “MAP after L-NAME infusion” value turned out to be 121±8.2 cmH2O. Besides, the “HR after L-NAME infusion” value with NO-production (L-NAME 30 mg kg-1, before muscle emboli challenge (time=-5), before L-NAME 286±11) was found to be 314±34 beats min^-1. The “ETCO2, lowest observed value” with NO-production (L-NAME 30 mg kg-1 pre-treatment + muscle emboli infusion, at 4 min, n=4 incl. dead animals) came out at 2.6±1.1 kPa. Besides, the “MAP, first drop” value in the data set with NO-production (L-NAME 30 mg kg-1 pre-treatment + muscle emboli infusion, at 12 min) is recorded as 52.4±25.5 cmH2O. In addition, the “MAP, lowest observed value” in the data set with NO-production (L-NAME 30 mg kg-1 pre-treatment + muscle emboli infusion, at 60 min) worked out at 44.4±29.6 cmH2O. The HR change result in the data set on NO-production (L-NAME 30 mg kg-1 pre-treatment + muscle emboli infusion, not significant) is recorded as “decreased”. Moreover, in the data set on NO-production (L-NAME 30 mg kg-1 pre-treatment, 7.5 to 30 mg kg-1 homogenate, four rabbits), the “Survival after muscle emboli infusion” value is “two animals survived 60 min”.

These data come from patent publication US20060057732A1, “Methods in the diagnosis of pulmonary embolism” (Aerocrine AB, priority 2004, published 2006).
